Tested on: Adult patients with moderate to severe chronic atopic dermatitis
Test: Randomised, double-blind, placebo-controlled study of oral L-histidine in atopic dermatitis (SCORAD, POEM, TEWL)
Assay type: in vivo, human
Method: A randomised, double-blind, placebo-controlled study was conducted as follows: Adult (i.e. greater than 18 years of age) patients with moderate to severe chronic atopic dermatitis were recruited to the study from patients and diagnosis of atopic dermatitis confirmed using the UK Working Party's Diagnostic criteria (see Williams et al, Br. J. Dermatol. 1994; 131:383-96). Exclusion criteria were: patients aged less than 18 years, pregnancy or lactation, liver disease, exposure to natural or artificial ultra-violet radiation, immunosuppression due to disease or medication and Chinese herbal medicine in the 3 months preceding the study. Patients were asked to cease potent topical steroid use during the study. Disease severity was quantified by a research nurse using the well established SCORAD system (see Schmitt et al, European Dermato-Epidemiology Network, J. Allergy Clin. Immunol., 2007; 120:1389-98) and self assessed by the patients using POEM (Patient-Oriented Eczema Measure; see […] et al, J. Arch. Dermatol. 2004; 140-1513-9). Skin barrier function was assessed using a Vapometer® which quantifies Trans Epidermal Water Loss (TEWL; see Fluhr et al, Exp. Dermatol., 2006; 15:483-92). Atopic dermatitis patients were randomised into each of 2 groups and after a 'washout' period of 2 weeks and received either 4.0 g of powder L-histidine or 4.0 g of placebo (the naturally occurring food sweetener, erythritol) powder daily for 4 weeks. The patients were instructed to dissolve either the L-histidine or placebo powder in fruit juice. Neither the patient nor the clinical staff was aware of the identity of treatments administered.

[1] = 4.0 g daily oral for 4 weeks, n=4

With `N[C@@H](Cc1c[nH]cn1)C(=O)O` [L-Histidine, 2-amino-3-(3H-imidazol-4-yl)propanoic acid] the “POEM % change after 4 wks” value [1] was −25%, the “SCORAD % change after 4 wks” value [1] was −22% and the “SCORAD after 4 wks” value [1] was 25. The “TEWL % change after 4 wks” value [1] was −50%, the “reduction of clinician-scored disease activity (SCORAD)” value (4 weeks of 4.0 g daily) was 22% and the “reduction of patient-scored disease activity” value (4 weeks of 4.0 g daily) was 25%. For the same compound, the “reduction of transepidermal water loss (TEWL)” value (4 weeks of 4.0 g daily) was 50%, the “TEWL after 4 wks” value (Vapometer, 4.0 g daily oral for 4 weeks, n=4) was 8 and the SCORAD before (baseline before treatment, 4.0 g daily oral group, n=4) was 37. For the same compound, the TEWL before (baseline before treatment, Vapometer, 4.0 g daily oral group, n=4) was 16, the POEM before (baseline before treatment, patient self-assessed, 4.0 g daily oral group, n=4) was 20 and the “POEM after 4 wks” value (patient self-assessed, 4.0 g daily oral for 4 weeks, n=4) was 15.
